Data published in patent US20140163096A1, “METHODS AND COMPOSITIONS FOR TREATING HIV-ASSOCIATED DIARRHEA” (priority 2012, published 2014).

Key:
[1] = Bacterial reverse mutation assay
rat bone marrow = details: in vivo
mice = test: 13-week oral toxicity study in mice; details: mouse, in vivo
Experimental: One additional group of 15 animals/sex served as the control and received the vehicle, purified water.
Observations for morbidity, mortality, injury, and the availability of food and water were conducted twice daily for all animals. Detailed clinical observations for clinical signs were conducted weekly on all main study animals. Body weights were measured and recorded weekly on all animals. Food consumption was measured and recorded weekly on all main study animals. Ophthalmoscopic examinations were conducted pretest and prior to necropsy for all main study animals. Blood samples for clinical pathology evaluations were collected from main study animals in extremis and at termination. […] Beginning on Day 7, a limited gross necropsy examination was performed on any TK animal euthanized in extremis or found dead in an effort to determine the cause of death.

[2] = human, in vivo; cited from earlier work
HIV-positive patients = details: human, in vivo

In the case of Crofelemer, the “bacterial reverse mutation assay result” value [1] was “negative”, the “rat bone marrow micronucleus assay result” value (rat bone marrow) was “negative” and the “clinical pathology, organ weight, and macroscopic effects” value (mice) was “observed in both sexes at 1200 mg/kg/day”. For the same substance, the food consumption effects (mice) was “evident at 40 mg/kg/day in females and ≧400 mg/kg/day in both sexes”, the systemic bioavailability [2] was “virtually no systemic bioavailability” and the “adverse events reported in greater than or equal to 1% and less than 2% of patients, at a higher incidence than placebo” value (HIV-positive patients) was “dizziness, muscle spasms, myalgia, and pain in extremity”. The “adverse reactions in patients who received doses greater than 250 mg daily” value (HIV-positive patients) was “similar” and the “safety profile by baseline CD4 cell count” value (HIV-positive patients) was “similar”.
